The source made the active and inactive calls.
Key:
[1] = viability loss in A549 lung cancer cells – cell-based, cherry-picks, […], cytotoxicity control, dose response (AID 1053119); assay type: functional
[2] = viability of BHK-21 cells – cell-based, secondary screen, cytotoxicity control for flavivirus guanylyltransferase probe project (AID 624078); assay type: functional
Nonstructural protein 1 = Nonstructural protein 1 (Influenza A virus, UniProt Q194T2); assay type: functional, Influenza A virus (A/California/07/2009(H1N1))
Nonstructural protein 1, sequence (Q194T2 whole entry): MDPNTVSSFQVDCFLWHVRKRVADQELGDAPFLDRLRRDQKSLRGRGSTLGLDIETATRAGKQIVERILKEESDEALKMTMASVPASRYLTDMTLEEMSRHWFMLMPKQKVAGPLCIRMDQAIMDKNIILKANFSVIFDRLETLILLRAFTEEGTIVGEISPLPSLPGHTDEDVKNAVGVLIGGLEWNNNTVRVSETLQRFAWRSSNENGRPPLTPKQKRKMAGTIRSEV

[3] = reduced cellular PGC1a acetyl-lysine signal – cell-based, cherry-picked samples, dose response (AID 720514); assay type: functional;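 also: potency may reflect raised or lowered acetylation signal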
[4] = viability of PTEN-deleted HCT116 cells – cell-based, HCT116 PTEN knockout, dose response (AID 1047); assay type: functional;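 also: HCT116 colon tumor cells with PTEN knocked out; cells exposed to compound for 60 hours before readout; potency for loss of cell viability measured by luminescence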
[5] = Luminescence Cell-Based Dose Retest to Confirm Inhibitors of Cancer Stem Cells. [Related pubchem assays (depositor defined):AID2717, AID2721]; assay type: functional; settings: Homo sapiens
[6] = viability of uninfected HEp-2 cells – cell-based, HTS, cytotoxicity control for RSV inhibitor project, dose response (AID 2410); assay type: functional; settings: human respiratory syncytial virus
[7] = viability of HCT116 lacking mutant beta-catenin – cell-based, human colon tumor, dose response (AID 1045); assay type: functional;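 also: HCT116 colon tumor cells with beta catenin knocked out; cells exposed to compound for 60 hours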
cells [8] = settings: HEK293
cells [9] = settings: A549
[10] = viability loss in HepG2 liver cells – cell-based, ATP luminescence, cherry-pick, set 6, cytotoxicity control, dose response (AID 1053125); assay type: functional
cells [11] = assay: cells
[12] = biological target: T1, Oxysterols receptor LXR-beta (Homo sapiens, UniProt P55055); assay type: functional, cell-based;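 also: agonist activity at LXR measured by a cell-based luminescence readout across a dose range, run as a counterscreen for daf-12 agonists; potency for activation of Gal4-LXR reporter so compounds are agonists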
T1 sequence (P55055 whole entry): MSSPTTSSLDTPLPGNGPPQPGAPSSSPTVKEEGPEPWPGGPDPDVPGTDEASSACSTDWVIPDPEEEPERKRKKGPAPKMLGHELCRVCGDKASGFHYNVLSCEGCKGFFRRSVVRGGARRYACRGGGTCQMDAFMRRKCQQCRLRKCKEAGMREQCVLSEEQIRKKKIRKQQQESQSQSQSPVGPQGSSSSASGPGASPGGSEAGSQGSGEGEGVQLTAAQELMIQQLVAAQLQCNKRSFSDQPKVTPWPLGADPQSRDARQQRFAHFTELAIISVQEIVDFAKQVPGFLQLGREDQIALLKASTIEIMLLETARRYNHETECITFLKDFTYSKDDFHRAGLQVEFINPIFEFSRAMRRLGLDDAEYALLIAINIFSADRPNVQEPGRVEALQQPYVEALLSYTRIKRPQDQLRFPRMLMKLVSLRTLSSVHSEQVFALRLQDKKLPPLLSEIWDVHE

Protein skinhead-1 = biological target: T2, Protein skinhead-1 (Caenorhabditis elegans, UniProt P34707); assay type: functional
T2 sequence (P34707 whole entry): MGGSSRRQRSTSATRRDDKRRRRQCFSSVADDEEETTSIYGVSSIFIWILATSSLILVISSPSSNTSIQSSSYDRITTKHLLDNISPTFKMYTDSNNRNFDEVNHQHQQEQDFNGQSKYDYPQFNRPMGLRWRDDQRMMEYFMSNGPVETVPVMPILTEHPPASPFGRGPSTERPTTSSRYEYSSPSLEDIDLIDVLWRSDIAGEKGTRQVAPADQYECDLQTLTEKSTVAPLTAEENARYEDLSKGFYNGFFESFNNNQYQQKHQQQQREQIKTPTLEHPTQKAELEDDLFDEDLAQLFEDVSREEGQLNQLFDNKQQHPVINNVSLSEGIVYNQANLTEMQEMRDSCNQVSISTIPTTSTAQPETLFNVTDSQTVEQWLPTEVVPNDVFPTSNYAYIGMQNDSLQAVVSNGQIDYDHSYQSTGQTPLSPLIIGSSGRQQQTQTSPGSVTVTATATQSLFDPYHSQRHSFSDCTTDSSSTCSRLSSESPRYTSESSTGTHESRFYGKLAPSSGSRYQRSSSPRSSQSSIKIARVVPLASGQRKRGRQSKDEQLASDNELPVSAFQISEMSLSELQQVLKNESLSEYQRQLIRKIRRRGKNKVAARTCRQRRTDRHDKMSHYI

[13] = toxicity toward immortalized ovarian surface epithelium – cell-based, plate reader, dry powder samples, cytotoxicity control for PAX8 inhibitor project, dose response (AID 743045); assay type: functional
[14] = OVCAR8 cell viability loss – plate reader, dry powder samples, PAX8 project, dose response (AID 743197); assay type: functional, cell-based; settings: OVCAR-8
[15] = IGROV1 cell killing – plate reader, dry powder samples, PAX8 inhibitor project, dose response (AID 743043); assay type: functional, cell-based; settings: IGROV-1
[16] = A2780 cell killing – plate reader, dry powder samples, cytotoxicity control, dose response (AID 743046); assay type: functional, cell-based
Paired box protein Pax-8 = Paired box protein Pax-8 (Homo sapiens, UniProt Q06710); assay: PAX8 transcriptional activity inhibition in RMG-I – RMG-I cells, luciferase, cherry-pick, dose response (AID 687027); assay type: functional, cell-based;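 also: luciferase reporter driven by Pax8 target thyroperoxidase promoter measured by SteadyGlo luminescence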
[17] = OVCAR-3 cell viability loss – plate reader, dry powder samples, PAX8 inhibitor project, dose response (AID 743044); assay type: functional, cell-based
[18] = biological target: T1, Oxysterols receptor LXR-beta; assay: LXR agonists, Gal4 luciferase reporter, dose response, counter-screen for ssDAF-12 agonist project, cell-based, luminescence, HEK293, S. stercoralis campaign (AID 720737); assay type: functional; settings: read-out: IC50 (the source's name)
[19] = Luminescence-based cell-based high throughput dose response assay to identify activators of the DAF-12 from the parasite S. stercoralis (ssDAF-12).; assay type: functional
[20] = MITF: Counter assay: A375 proliferation Measured in Cell-Based System Using Plate Reader - 2084-03_Inhibitor_Dose_DryPowder_Activity_Set8.; assay type: functional; settings: A-375
[21] = MITF Orthogonal Assay: SK-MEL-5 CTG Assay Measured in Cell-Based System Using Plate Reader - 2084-02_Inhibitor_Dose_DryPowder_Activity_Set7.; assay type: functional
[22] = inhibitors of TRPM1-promoter reporter in SK-MEL-5 – cell-based, luciferase, dry powder, set 8, MITF inhibitor project, dose response (AID 624430); assay type: functional
[23] = biological target: T3, Disintegrin and metalloproteinase domain-containing protein 17 (Homo sapiens, UniProt P78536); assay: exosite inhibitors of ADAM17, dose response, biochemical (AID 743260)
T3 sequence (P78536 whole entry, the tested form may be a part): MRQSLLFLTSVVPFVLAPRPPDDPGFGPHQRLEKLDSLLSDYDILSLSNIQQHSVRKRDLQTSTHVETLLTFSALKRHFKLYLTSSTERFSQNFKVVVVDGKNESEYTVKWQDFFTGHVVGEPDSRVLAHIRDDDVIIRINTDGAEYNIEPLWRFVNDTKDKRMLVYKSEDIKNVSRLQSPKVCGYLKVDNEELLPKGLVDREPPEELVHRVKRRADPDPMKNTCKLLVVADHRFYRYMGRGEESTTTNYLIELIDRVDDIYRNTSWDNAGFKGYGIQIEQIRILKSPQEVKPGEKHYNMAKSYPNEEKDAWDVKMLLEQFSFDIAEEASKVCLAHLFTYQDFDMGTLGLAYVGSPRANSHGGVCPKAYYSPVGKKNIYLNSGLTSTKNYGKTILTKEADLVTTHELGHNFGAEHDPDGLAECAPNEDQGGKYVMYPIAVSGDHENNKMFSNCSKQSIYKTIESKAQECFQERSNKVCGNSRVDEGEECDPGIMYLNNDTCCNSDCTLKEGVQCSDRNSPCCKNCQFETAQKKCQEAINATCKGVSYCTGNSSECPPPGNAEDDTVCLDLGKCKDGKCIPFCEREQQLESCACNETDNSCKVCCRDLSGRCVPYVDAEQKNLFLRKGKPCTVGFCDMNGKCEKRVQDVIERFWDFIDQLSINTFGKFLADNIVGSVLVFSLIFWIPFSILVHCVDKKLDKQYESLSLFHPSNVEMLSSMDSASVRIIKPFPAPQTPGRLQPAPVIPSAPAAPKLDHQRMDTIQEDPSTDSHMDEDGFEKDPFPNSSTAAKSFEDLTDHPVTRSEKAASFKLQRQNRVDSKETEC

[24] = inhibition of ADAM10 peptide cleavage – biochemical, FRET peptide substrate, recombinant human ADAM10, selectivity assay for ADAM17 exosite inhibitor project, dose response (AID 743259);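 also: ADAM10 enzyme cleaving a FRET peptide substrate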
Caspase-7 = biological target: T4, Caspase-7 (Homo sapiens, UniProt P55210); assay: caspase-7 enzyme inhibition, selectivity check – biochemical, DEVD-R110 fluorescence, cherry-pick, selectivity assay for caspase-6 inhibitor project, dose response (AID 743295); assay type: functional
T4 sequence (P55210 whole entry): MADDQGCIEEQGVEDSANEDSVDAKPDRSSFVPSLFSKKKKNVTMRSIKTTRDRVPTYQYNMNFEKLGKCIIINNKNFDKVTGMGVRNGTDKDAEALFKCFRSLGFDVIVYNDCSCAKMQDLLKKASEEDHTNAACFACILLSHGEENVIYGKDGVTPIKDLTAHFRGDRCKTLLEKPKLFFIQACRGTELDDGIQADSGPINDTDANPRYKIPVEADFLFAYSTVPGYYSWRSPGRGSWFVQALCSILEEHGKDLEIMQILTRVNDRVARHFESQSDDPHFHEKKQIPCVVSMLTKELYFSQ

Caspase-6 = biological target: T5, Caspase-6 (Homo sapiens, UniProt P55212); assay: inhibition of CASP6 peptide cleavage – biochemical, VEID-R110 fluorescence, cherry-pick, dose response (AID 720632)
T5 sequence (P55212 whole entry): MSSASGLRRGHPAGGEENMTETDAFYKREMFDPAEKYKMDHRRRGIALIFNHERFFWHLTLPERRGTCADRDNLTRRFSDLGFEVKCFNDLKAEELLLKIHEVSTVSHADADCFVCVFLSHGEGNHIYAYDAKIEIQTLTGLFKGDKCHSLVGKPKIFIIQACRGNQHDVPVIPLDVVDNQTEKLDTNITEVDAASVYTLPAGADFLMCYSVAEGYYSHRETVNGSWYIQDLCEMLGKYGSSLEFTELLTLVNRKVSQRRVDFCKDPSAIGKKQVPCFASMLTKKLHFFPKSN

Caspase-9 = Caspase-9 (Homo sapiens, UniProt P55211); assay: inhibitors of purified CASP9 protease – biochemical, fluorescence, plate reader, cherry-picked samples, selectivity assay for caspase-6 inhibitor project, dose response (AID 743293)
Caspase-9, sequence (P55211 1-315 limits assumed): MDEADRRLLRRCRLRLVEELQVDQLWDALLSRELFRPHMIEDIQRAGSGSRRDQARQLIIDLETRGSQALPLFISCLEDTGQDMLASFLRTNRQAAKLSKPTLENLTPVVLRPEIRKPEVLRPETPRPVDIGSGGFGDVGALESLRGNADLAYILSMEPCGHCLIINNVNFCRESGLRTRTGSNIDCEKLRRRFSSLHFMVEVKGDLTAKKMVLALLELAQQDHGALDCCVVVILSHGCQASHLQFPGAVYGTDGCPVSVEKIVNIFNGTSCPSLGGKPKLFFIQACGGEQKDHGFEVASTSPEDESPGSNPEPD
Caspase-9, sequence (P55211 331-416 limits assumed): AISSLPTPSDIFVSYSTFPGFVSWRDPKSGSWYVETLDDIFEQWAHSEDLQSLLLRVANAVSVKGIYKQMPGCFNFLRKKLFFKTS

[25] = biological target: 1-phosphatidylinositol 4,5-bisphosphate phosphodiesterase gamma-1 (Homo sapiens, UniProt P19174); assay: Counterscreen for inhibitors of phospholipase C isozymes (PLC-B3): Fluorescence-based biochemical high throughput dose response assay to identify inhibitors of phospholipase C isozymes (PLC-gamma1).
1-phosphatidylinositol 4,5-bisphosphate phosphodiesterase gamma-1, sequence (P19174 whole entry): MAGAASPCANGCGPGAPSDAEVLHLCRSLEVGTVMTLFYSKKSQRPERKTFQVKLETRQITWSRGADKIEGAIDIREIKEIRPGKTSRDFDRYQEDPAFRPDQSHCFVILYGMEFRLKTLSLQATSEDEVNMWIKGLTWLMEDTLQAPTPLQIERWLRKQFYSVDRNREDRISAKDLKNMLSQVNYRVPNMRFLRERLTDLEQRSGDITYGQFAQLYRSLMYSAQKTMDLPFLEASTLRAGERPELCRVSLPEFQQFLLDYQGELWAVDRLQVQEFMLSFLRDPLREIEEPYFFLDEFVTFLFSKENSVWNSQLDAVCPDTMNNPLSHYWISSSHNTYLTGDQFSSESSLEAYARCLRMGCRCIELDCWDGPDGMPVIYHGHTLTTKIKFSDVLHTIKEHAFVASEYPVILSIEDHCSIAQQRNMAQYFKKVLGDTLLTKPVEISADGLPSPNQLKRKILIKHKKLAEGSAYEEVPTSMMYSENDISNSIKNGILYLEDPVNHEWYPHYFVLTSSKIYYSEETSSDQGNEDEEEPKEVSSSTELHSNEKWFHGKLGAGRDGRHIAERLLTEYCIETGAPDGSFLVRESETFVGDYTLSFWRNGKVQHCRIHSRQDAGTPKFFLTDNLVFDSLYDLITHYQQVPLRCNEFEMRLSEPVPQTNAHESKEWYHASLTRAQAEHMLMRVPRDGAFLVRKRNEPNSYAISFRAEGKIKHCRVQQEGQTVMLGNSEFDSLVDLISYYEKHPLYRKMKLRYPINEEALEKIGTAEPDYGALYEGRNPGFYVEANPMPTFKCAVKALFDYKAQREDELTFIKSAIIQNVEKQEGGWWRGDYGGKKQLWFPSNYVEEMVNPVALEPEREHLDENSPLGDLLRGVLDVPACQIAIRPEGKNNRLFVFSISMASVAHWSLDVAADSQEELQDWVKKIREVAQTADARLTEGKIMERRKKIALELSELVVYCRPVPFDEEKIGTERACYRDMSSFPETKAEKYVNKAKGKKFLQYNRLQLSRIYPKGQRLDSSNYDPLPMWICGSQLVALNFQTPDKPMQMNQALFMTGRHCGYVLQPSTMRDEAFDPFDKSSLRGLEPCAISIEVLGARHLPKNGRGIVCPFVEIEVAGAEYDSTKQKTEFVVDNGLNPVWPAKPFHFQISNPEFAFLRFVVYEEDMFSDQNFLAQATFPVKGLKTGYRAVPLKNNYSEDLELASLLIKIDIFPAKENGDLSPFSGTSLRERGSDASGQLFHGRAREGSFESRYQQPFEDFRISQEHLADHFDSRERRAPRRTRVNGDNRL

[26] = biological target: 1-phosphatidylinositol 4,5-bisphosphate phosphodiesterase beta-3 (Homo sapiens, UniProt Q01970); assay: Fluorescence-based biochemical high throughput dose response assay to identify inhibitors of phospholipase C isozymes (PLC-B3).
Kallikrein-7 = Kallikrein-7 (Homo sapiens, UniProt P49862); assay: Fluorescence Intensity-based biochemical primary high throughput dose response assay to identify activators of kallikrein-7 (K7) zymogen.
Kallikrein-7, sequence (P49862 whole entry): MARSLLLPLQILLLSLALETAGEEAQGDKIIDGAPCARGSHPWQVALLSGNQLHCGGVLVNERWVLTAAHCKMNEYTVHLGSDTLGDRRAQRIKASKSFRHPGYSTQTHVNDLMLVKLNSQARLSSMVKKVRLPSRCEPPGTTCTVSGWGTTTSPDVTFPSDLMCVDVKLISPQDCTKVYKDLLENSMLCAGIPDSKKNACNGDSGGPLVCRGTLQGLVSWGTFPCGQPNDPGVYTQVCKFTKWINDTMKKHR

[27] = biological target: NAD-dependent protein deacylase sirtuin-5, mitochondrial (Homo sapiens, UniProt Q9NXA8); assay: sirtuin-5 deacylation blockers, concentration series – biochemical, fluorescence imaging, cherry-pick, set 5, dose response (AID 720591);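 also: desuccinylation of succinyl peptide AMC substrate read as fluorescence after trypsin release; potency of inhibitors that lower fluorescence and may act on trypsin instead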
NAD-dependent protein deacylase sirtuin-5, mitochondrial, sequence (Q9NXA8 whole entry): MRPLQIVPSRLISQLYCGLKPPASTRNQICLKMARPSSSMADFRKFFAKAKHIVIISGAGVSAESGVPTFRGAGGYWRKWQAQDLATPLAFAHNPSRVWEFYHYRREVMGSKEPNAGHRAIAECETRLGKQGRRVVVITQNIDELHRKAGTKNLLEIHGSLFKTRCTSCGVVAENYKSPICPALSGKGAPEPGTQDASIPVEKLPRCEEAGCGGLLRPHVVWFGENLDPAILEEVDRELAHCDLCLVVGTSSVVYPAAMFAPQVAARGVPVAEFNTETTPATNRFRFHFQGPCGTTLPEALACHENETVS

[28] = viability loss in MITF-independent A375 cells – cell-based, CellTiter-Glo luminescence, dry powder, set 2, counter-screen for MITF inhibitor project, dose response (AID 624489); assay type: functional; settings: A-375;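 also: actives are compounds lowering A375 viability meaning general cytotoxicity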
[29] = cytotoxicity in MITF-independent A375 cells – cell-based, CellTiter-Glo luminescence, dry powder, set 4, counter-screen for MITF inhibitor project, dose response (AID 624364); assay type: functional; settings: A-375;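 also: A375 melanoma cells are MITF independent so this is a counter screen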
[30] = biological target: Endoplasmic reticulum aminopeptidase 1 (Homo sapiens, UniProt Q9NZ08); assay: inhibition of human ERAP1 enzyme activity – biochemical, cherry-pick, set 2, plate reader, dose response (AID 743314)
Endoplasmic reticulum aminopeptidase 1, sequence (Q9NZ08 whole entry): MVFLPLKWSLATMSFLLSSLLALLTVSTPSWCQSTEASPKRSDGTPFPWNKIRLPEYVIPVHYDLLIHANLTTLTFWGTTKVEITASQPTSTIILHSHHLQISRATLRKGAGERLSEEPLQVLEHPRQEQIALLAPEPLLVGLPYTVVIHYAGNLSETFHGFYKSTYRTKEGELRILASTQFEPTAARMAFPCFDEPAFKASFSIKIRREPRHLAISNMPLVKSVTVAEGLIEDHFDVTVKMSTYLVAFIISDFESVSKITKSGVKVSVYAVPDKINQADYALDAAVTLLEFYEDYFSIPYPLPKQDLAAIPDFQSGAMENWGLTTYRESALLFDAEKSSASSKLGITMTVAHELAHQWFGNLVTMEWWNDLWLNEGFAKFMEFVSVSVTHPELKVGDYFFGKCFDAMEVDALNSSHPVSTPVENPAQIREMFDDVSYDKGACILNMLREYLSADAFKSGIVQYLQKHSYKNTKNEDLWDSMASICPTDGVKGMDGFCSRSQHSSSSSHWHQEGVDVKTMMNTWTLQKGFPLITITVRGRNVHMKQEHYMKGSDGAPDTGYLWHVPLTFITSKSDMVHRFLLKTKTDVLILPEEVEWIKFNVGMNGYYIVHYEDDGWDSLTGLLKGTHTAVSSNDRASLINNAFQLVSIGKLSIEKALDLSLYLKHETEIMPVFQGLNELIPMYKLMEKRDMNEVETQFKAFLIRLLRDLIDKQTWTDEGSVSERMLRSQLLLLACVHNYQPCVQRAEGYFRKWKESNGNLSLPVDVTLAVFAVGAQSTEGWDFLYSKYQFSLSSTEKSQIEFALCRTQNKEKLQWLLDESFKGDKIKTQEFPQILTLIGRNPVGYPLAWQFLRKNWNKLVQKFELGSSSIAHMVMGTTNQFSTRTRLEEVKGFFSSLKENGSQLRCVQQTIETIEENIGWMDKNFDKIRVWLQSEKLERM

H9c2 = assay: cells; assay type: functional, cell-based; settings: Rattus norvegicus, H9c2, Myocardium;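 also: confirmatory concentration-response retest of ultra-high-throughput screening hits for modulation of myocardial damage; cell death induced by hydrogen peroxide oxidative stress; compound pretreatment for 60 min then peroxide exposure for 2 h; potency is for protecting the cells against peroxide damage rather than for killing them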
[31] = biological target: T3, Disintegrin and metalloproteinase domain-containing protein 17; assay: inhibition of ADAM17 substrate cleavage – biochemical, quenched FRET substrate, counter-screen for ADAM10 exosite inhibitor project, dose response (AID 743253)
[32] = potency of ADAM10 substrate cleavage blockers – biochemical, QFRET, dose response (AID 743254);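 also: ADAM10 enzyme with the DM2 quenched FRET peptide as substrate; EDANS fluorescence gain as the protease cuts the substrate; inhibitor potency against ADAM10 proteolytic activity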
Fibrinogen beta chain [33] = biological target: T6, Fibrinogen beta chain (Homo sapiens, UniProt P02675); assay: Fluorescence polarization-based biochemical high throughput dose response assay to identify inhibitors that disrupt the binding of a cyclic peptide (Tn6) to the fibrin proteolytic product D-Dimer and fragment E complex [DD(E )].
T6 sequence (P02675 whole entry, the tested form may be a part): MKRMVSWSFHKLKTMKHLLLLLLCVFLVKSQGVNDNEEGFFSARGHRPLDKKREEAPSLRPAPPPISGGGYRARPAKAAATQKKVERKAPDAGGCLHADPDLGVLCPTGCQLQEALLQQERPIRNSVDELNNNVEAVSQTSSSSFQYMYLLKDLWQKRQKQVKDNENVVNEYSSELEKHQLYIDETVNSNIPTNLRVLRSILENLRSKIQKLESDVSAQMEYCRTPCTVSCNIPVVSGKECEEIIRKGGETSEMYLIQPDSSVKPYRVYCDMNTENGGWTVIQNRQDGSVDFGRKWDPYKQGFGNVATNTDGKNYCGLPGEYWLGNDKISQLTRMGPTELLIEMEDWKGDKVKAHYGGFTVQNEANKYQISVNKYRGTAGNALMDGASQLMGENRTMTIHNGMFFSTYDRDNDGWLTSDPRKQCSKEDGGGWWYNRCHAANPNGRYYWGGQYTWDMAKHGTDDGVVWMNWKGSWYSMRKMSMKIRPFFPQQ

Fibrinogen beta chain [34] = biological target: T6, Fibrinogen beta chain; assay: Fluorescence polarization-based biochemical high throughput dose response assay to identify inhibitors that disrupt the binding of a cyclic peptide (Tn7) to the fibrin proteolytic product D-Dimer and fragment E complex [DD(E )].

CN(C)C(=O)c1ccc(-c2ccc3c(c2)[C@H]2[C@H](CCN2C(=O)c2ccc(F)cc2)[C@H](CO)N3C)cc1
AC50 [1]: 43.6 µM (active)

O=S(=O)(Nc1cc(Sc2ccccc2)c(O)c2ccccc12)c1ccc(F)cc1
CC50 [2]: 13.4 µM (active)

CCCOc1ccccc1-n1sc2c(c1=S)-c1cc(OC)cc3c1N(C(=O)C3=O)C2(C)C
IC50 (Nonstructural protein 1): 9.35 µM (active)
AC50 [3]: 19.4 µM (active)
EC50 [4]: 19.9 µM (active)
AC50 [5]: 5.35 µM (active)
CC50 [6]: 21.4 µM (active)
EC50 [7]: 22 µM (active)

CCOc1ccc2nc(NCCN=C(S)NCCCN(C)C)c(C#N)cc2c1
AC50 (cells [8]): > 52 µM (inactive)
AC50 (cells [9]): > 52 µM (inactive)
AC50 [10]: > 52 µM (inactive)
AC50 (cells [11]): > 32 µM (inactive)

Cc1cc2nn(-c3ccc(F)cc3)nc2cc1N
EC50 [12]: > 67.5 µM (inactive)
IC50 (Protein skinhead-1): > 100 µM (inactive)

CS(=O)(=O)Nc1ccc2c(c1)[C@@H]1C[C@@H](CC(=O)NCc3ccc(Oc4ccccc4)cc3)O[C@@H](CO)[C@@H]1O2
AC50 [13]: 8.81 µM (active)
AC50 [14]: 11.3 µM (active)
AC50 [15]: 6.7 µM (active)
AC50 [16]: 6.31 µM (active)
AC50 (Paired box protein Pax-8): 1.95 µM (active)
AC50 [17]: 3.38 µM (active)

C=CCc1ccc(OCCCCOc2ccc(C(=O)O)cc2)c(OC)c1
EC50 [18]: > 67.5 µM (inactive)
IC50 [19]: > 67.5 µM (inactive)

CN1CCN(C2=C(Nc3cccc(Br)c3)C(=O)c3ccccc3C2=O)CC1
AC50 [20]: 39.3 µM (active)
AC50 [21]: 12.3 µM (active)
AC50 [22]: 4.79 µM (active)

NS(=O)(=O)c1ccc(NCc2cc(Cl)ccc2OCc2ccc(F)cc2)cc1
IC50 [23]: > 69.5 µM (inactive)
IC50 [24]: > 23.2 µM (inactive)

O=C(C[C@@H]1C[C@H]2c3cc(NC(=O)NC4CCCCC4)ccc3O[C@H]2[C@H](CO)O1)NCc1ccccn1
AC50 (Caspase-7): 29.7 µM (active)
AC50 (Caspase-6): 7.79 µM (active)
AC50 (Caspase-9): 53.5 µM (active)

Cc1cc(OCC(=O)OCC(=O)NCc2ccc3c(c2)OCO3)ccc1Cl
IC50 [25]: > 123 µM (inactive)
IC50 [26]: > 123 µM (inactive)

COc1ccc(/C=N/NC(=O)c2cc3c(ccc4ccccc43)o2)cc1OC
EC50 (Kallikrein-7): > 23.2 µM (inactive)

O=C(O)c1ccc(S(=O)(=O)N(Cc2ccccc2)C2CCCCC2)cc1
AC50 [27]: > 30 µM (inactive)

O=C1C(NS(=O)(=O)c2ccc(Br)cc2)=C(N2CCOCC2)C(=O)c2ccccc21
AC50 [28]: > 70 µM (inactive)
AC50 [29]: > 70 µM (inactive)

CCCCc1cc(=O)oc2cc(O)ccc12
AC50 [30]: 7.25 µM (active)
IC50 (H9c2): > 79 µM (inactive)

CC(O)(c1ccc(F)c(F)c1)c1nc(-c2cc3ccccc3o2)cs1 (configuration not stated)
IC50 [31]: > 69.5 µM (inactive)
IC50 [32]: 10.5 µM (inactive)

O=C(CSc1nnc(SCc2cccc3ccccc23)s1)Nc1ccc(S(=O)(=O)Nc2nccs2)cc1
IC50 (Fibrinogen beta chain [33]): 15.6 µM (inactive)
IC50 (Fibrinogen beta chain [34]): > 83.3 µM (inactive)

— ChEMBL document CHEMBL1201862, “PubChem BioAssay data set” (2004)
